Source: PubChem BioAssay AID977613 (Broad Institute, 2014)
Activity calls are given as the source filed them. No rule for the calls is given here.

tested on: Broad 7084-01 inhibitor HTS, set 2; assay: single-concentration hits, screen 7084 set 2 (AID 977613);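 also: host cells are infected with parasite promastigotes that become internalized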

SMILES | active concentration
CCC(=O)N1CC(=O)N2[C@H](C1)[C@@H](c1ccc(-c3ccc(C#N)cc3)cc1)[C@@H]2CO | > 10 µM (inactive)
CS(=O)(=O)N1C[C@H](O)COC[C@@H]2O[C@@H](CC(=O)NCc3ccc(-c4ccccc4)cc3)CC[C@H]21 | > 10 µM (inactive)
O=C(C[C@H]1CC[C@@H]2[C@H](COC[C@@H](O)CN2Cc2ccccc2)O1)NCCc1ccccc1 | > 10 µM (inactive)
CC(=O)N1[C@H](CO)[C@@H](c2ccccc2)C12CN(C(=O)Cc1ccccc1)C2 | > 10 µM (inactive)
COc1ccc(C#Cc2ccc3c(c2)[C@H]2[C@H](CCN2C(=O)c2cccc(F)c2)[C@@H](CO)N3)cc1 | > 10 µM (inactive)
COc1ccc2c3c(n(C)c2c1)[C@@H](CO)N(S(=O)(=O)c1ccc(C)cc1)CC31CN(C(=O)c2ccccn2)C1 | > 10 µM (inactive)
O=C(C[C@H]1CC[C@H]2[C@@H](COC[C@@H](O)CN2Cc2ccc(Cl)cc2)O1)NCc1ccccc1Cl | > 10 µM (inactive)
O=S(=O)(c1ccc(F)cc1)N1C[C@H]2[C@@H](c3ccccc31)[C@@H](CO)N2Cc1ccccc1Cl | > 10 µM (inactive)
CC(C)CC#Cc1ccc([C@@H]2[C@H](CO)N3C(=O)CN(C(=O)c4ccccn4)C[C@@H]23)cc1 | > 10 µM (inactive)
CCCNC(=O)N1CC(=O)N2[C@H](C1)[C@H](c1ccc(-c3ccc(F)cc3)cc1)[C@@H]2CO | > 10 µM (inactive)
CN(C)CC(=O)N1[C@H](C#N)[C@@H](c2ccccc2-c2ccccc2F)[C@H]1CO | > 10 µM (inactive)
CS(=O)(=O)N1[C@H](CO)[C@@H](c2ccccc2)C12CN(Cc1ccccn1)C2 | > 10 µM (inactive)
O=C(Nc1ccccc1)N1CC(=O)N2[C@@H](CO)[C@H](c3ccc(C#CC4CCCCC4)cc3)[C@@H]2C1 | > 10 µM (inactive)
COc1ccc2c3c([nH]c2c1)[C@H](CO)N(Cc1ccc(F)cc1)CC31CCN(C)CC1 | > 10 µM (inactive)
COc1ccc2c3c([nH]c2c1)[C@@H](CO)N(C(=O)NC(C)C)CC31CCN(C(=O)c2cnccn2)CC1 | > 10 µM (inactive)
O=S(=O)(c1cccs1)N1CCCCN2[C@@H](CO)[C@@H](c3ccc(/C=C/c4ccccc4)cc3)[C@@H]2C1 | > 10 µM (inactive)
CN1c2ccc(Br)cc2[C@H]2[C@H](CCN2S(=O)(=O)c2cccc(F)c2)[C@@H]1CO | > 10 µM (inactive)
COC(=O)c1ccc(CN2CC(=O)N3[C@H](CO)[C@H](c4ccc(-c5cccnc5)cc4)[C@H]3C2)cc1 | > 10 µM (inactive)
CN1c2ccc(-c3cccc(F)c3)cc2[C@@H]2[C@@H](CCN2C(=O)c2ccccc2F)[C@@H]1CO | > 10 µM (inactive)
CN(C)C(=O)C[C@@H]1CC[C@H]2[C@@H](COC[C@H](O)CN2C(=O)C2CC2)O1 | > 10 µM (inactive)
COc1ccc2c3c(n(C)c2c1)[C@@H](CO)N(C(=O)C1CC1)CC31CCN(Cc2cccc(F)c2)CC1 | > 10 µM (inactive)
C[C@@H](NC(=O)[C@@H]1[C@@H](CO)[C@@H]2Cn3c(cccc3=O)[C@H]1N2CCC(F)(F)F)c1ccccc1 | > 10 µM (inactive)
N#C[C@H]1[C@@H](c2ccccc2-c2ccccc2F)[C@H](CO)N1C(=O)C1CCC1 | > 10 µM (inactive)
OC[C@@H]1[C@H]2c3ccccc3NC[C@H]2N1CC1CCOCC1 | > 10 µM (inactive)
CCC(=O)N1[C@@H](CO)[C@@H]2c3ccccc3N(S(=O)(=O)c3ccccc3C)C[C@@H]21 | > 10 µM (inactive)
O=C(NCCc1ccncc1)[C@H]1[C@H](CO)[C@H]2Cn3c(ccc(-c4ccccc4)c3=O)[C@H]2N1C(=O)C1CC1 | > 10 µM (inactive)
O=C(C[C@@H]1CC[C@@H]2[C@H](COC[C@@H](O)CN2CC2CC2)O1)NCC1CC1 | > 10 µM (inactive)
O=C(C1CCOCC1)N1[C@@H](CO)[C@@H](c2ccccc2)C12CN(Cc1cccc(Cl)c1)C2 | > 10 µM (inactive)
